Assay results reported in ChEMBL document CHEMBL1909046, “DrugMatrix in vitro pharmacology data”.

How the values were obtained:
Cytochrome P450 2E1 = Cytochrome P450 2E1 (Homo sapiens, UniProt P05181); conditions: bti-tn-5b1-4; further: in other assays of this panel Not Active means under 50% inhibition at 10 µM
Estrogen receptor = target: T1, Estrogen receptor (Homo sapiens, UniProt P03372); conditions: sf9; further: in other assays of this panel Not Active means under 50% inhibition at 10 µM
T1 sequence (P03372 whole entry): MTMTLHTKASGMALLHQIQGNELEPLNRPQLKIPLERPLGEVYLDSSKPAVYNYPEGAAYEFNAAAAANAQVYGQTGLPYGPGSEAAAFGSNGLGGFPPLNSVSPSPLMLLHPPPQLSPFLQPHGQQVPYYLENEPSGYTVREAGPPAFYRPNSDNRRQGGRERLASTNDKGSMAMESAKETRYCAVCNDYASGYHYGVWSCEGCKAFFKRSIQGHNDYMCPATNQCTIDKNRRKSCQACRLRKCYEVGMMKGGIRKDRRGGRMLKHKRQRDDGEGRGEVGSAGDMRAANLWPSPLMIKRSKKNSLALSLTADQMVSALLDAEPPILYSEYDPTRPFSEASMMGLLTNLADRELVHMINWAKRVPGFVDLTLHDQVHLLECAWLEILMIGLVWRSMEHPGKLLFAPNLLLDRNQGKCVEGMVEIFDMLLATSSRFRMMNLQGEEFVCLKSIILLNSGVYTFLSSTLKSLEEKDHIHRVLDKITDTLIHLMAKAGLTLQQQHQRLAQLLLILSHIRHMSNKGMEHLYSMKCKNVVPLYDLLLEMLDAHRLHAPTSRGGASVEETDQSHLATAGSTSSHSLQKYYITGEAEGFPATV

Glucocorticoid receptor = target: T2, Glucocorticoid receptor (Homo sapiens, UniProt P04150); conditions: hela s3; further: in other assays of this panel Not Active means under 50% inhibition at 10 µM
T2 sequence (P04150 whole entry): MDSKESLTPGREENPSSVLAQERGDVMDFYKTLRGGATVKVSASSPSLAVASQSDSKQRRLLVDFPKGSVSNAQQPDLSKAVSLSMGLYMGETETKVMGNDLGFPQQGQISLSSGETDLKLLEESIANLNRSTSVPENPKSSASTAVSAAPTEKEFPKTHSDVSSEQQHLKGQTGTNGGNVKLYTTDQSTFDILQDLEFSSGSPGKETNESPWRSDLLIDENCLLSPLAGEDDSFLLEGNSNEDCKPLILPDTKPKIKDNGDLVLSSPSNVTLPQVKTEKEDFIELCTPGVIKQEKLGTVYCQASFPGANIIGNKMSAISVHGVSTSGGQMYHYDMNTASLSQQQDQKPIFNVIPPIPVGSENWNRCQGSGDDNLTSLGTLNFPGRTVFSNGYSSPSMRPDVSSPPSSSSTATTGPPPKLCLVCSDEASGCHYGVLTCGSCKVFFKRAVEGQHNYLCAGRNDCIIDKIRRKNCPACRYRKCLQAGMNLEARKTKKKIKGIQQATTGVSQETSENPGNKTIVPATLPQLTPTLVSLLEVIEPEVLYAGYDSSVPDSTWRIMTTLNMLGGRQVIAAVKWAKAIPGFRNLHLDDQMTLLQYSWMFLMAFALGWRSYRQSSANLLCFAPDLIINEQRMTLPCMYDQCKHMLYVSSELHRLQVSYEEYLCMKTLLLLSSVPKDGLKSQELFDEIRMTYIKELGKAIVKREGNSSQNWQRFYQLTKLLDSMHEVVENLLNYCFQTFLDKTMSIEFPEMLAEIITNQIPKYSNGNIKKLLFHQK

[1] = target: T3, Alpha-2A adrenergic receptor (Homo sapiens, UniProt P08913); format: cell membranes, Sf9, Membrane; further: in other assays of this panel Not Active means under 50% inhibition at 10 µM
T3 sequence (P08913 whole entry): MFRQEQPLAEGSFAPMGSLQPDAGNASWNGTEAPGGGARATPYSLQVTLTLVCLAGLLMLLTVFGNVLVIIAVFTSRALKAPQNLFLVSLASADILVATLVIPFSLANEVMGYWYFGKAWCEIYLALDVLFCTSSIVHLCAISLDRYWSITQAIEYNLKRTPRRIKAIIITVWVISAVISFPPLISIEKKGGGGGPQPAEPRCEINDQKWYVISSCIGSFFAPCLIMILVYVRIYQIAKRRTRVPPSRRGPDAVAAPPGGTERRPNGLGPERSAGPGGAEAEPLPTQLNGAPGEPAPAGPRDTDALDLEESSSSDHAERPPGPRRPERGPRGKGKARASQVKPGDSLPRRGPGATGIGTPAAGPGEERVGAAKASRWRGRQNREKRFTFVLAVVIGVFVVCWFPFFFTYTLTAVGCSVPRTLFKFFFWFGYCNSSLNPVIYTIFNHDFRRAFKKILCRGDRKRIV

D(1A) dopamine receptor = D(1A) dopamine receptor (Homo sapiens, UniProt P21728); experiment: DRUGMATRIX: Dopamine D1 radioligand binding (ligand: [3H] SCH-23390); format: cell membranes, CHO, Membrane; conditions: cho; Not Active = under 50% inhibition at 10 µM
D(1A) dopamine receptor, sequence (P21728 whole entry): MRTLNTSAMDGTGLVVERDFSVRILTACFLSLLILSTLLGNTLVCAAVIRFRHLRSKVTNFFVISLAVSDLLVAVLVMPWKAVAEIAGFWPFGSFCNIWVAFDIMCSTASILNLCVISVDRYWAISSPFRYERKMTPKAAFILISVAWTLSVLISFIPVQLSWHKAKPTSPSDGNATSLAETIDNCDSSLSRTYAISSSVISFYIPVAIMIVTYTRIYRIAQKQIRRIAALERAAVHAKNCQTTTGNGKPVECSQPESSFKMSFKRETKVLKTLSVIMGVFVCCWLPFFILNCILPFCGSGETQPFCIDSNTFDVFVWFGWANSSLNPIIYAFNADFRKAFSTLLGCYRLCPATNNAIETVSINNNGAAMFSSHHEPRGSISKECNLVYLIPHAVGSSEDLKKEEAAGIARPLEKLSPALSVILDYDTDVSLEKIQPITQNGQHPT

D(3) dopamine receptor = D(3) dopamine receptor (Homo sapiens, UniProt P35462); experiment: DRUGMATRIX: Dopamine D3 radioligand binding (ligand: [3H] Spiperone); format: cell membranes, CHO, Membrane; conditions: cho
D(3) dopamine receptor, sequence (P35462 whole entry): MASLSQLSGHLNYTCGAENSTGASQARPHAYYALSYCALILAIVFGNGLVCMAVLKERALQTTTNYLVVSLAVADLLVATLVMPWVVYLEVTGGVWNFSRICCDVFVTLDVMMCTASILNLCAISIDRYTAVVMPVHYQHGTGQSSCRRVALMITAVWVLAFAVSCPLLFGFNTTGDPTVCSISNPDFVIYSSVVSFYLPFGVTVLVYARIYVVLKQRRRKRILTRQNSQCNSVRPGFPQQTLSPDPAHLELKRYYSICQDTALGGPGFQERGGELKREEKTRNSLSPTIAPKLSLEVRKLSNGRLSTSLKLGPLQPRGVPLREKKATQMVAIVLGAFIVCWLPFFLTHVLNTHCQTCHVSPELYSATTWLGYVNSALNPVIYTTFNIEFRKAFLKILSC

Estrogen receptor beta = Estrogen receptor beta (Homo sapiens, UniProt Q92731); conditions: sf9; further: in other assays of this panel Not Active means under 50% inhibition at 10 µM
Estrogen receptor beta, sequence (Q92731 whole entry): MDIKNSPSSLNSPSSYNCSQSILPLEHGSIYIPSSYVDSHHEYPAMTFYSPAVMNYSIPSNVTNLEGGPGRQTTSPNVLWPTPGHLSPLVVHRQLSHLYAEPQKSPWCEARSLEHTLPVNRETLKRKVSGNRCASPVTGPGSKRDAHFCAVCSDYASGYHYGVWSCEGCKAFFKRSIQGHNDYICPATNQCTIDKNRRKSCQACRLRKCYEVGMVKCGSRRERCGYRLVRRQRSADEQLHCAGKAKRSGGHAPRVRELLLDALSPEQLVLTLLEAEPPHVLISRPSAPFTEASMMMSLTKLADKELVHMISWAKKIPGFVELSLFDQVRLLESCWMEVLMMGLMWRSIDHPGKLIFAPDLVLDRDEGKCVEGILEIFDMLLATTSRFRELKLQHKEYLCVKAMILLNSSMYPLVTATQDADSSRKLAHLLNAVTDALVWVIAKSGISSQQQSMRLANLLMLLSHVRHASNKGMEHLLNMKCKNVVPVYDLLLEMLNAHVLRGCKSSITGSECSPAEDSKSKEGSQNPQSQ

Cytochrome P450 2E1, sequence (P05181 whole entry): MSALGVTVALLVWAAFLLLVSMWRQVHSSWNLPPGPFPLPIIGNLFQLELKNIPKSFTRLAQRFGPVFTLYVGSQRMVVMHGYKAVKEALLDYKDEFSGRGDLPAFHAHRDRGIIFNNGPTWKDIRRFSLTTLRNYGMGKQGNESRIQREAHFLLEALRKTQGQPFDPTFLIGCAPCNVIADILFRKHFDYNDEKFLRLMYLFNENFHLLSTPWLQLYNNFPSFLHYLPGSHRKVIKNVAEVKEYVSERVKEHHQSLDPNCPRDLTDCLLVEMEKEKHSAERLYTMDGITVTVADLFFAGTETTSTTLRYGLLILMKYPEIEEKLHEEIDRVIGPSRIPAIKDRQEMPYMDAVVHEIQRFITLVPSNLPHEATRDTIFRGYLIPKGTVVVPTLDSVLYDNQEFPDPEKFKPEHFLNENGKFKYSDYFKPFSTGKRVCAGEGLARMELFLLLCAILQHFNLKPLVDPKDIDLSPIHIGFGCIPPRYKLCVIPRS

Compound	IC50 (Cytochrome P450 2E1)	Ki (Cytochrome P450 2E1)	IC50 (Estrogen receptor)	IC50 (Glucocorticoid receptor)	IC50 ([1]; sf9)	IC50 (D(1A) dopamine receptor)	IC50 (D(3) dopamine receptor)	IC50 (Estrogen receptor beta)	IC50 ([1]; read-out: IC50) [µM]	Ki ([1]; read-out: Ki) [µM]
Cc1cc2c(s1)Nc1ccccc1N=C2N1CCN(C)CC1 [OLANZAPINE]	Not Active	Not Active	Not Active	Not Active	–	–	–	–	–	–
Oc1ccc(/C=C/c2cc(O)cc(O)c2)cc1 [RESVERATROL]	Not Active	Not Active	Not Active	–	Not Active	Not Active	Not Active	–	–	–
O=C1CC[C@@]2(O)[C@H]3Cc4ccc(O)c5c4[C@@]2(CCN3CC2CC2)[C@H]1O5 [NALTREXONE]	Not Active	Not Active	–	Not Active	Not Active	Not Active	Not Active	Not Active	–	–
Cc1nnc(NS(=O)(=O)c2ccc(N)cc2)s1 [SULFAMETHIZOLE]	Not Active	Not Active	Not Active	–	Not Active	Not Active	Not Active	–	–	–
C=CCc1ccc2c(c1)OCO2 [SAFROLE]	Not Active	Not Active	–	Not Active	Not Active	Not Active	Not Active	Not Active	–	–
Cc1cn([C@H]2C=C[C@@H](CO)O2)c(=O)[nH]c1=O [STAVUDINE]	Not Active	Not Active	–	–	Not Active	Not Active	Not Active	Not Active	–	–
CC1=C(/C=C/C(C)=C/C=C/C(C)=C/C(=O)O)C(C)(C)CCC1 [TRETINOIN]	Not Active	Not Active	Not Active	Not Active	Not Active	Not Active	Not Active	–	–	–
O=C(O)c1cc(/N=N/c2ccc(S(=O)(=O)Nc3ccccn3)cc2)ccc1O [SULFASALAZINE]	Not Active	Not Active	–	Not Active	Not Active	Not Active	Not Active	Not Active	–	–
CS(=O)(=O)c1ccc(C2=C(c3ccccc3)C(=O)OC2)cc1 [ROFECOXIB]	Not Active	Not Active	–	Not Active	Not Active	Not Active	Not Active	Not Active	–	–
C1CCN2C[C@@H]3C[C@@H](CN4CCCC[C@@H]34)[C@H]2C1 [SPARTEINE]	–	–	–	Not Active	Not Active	Not Active	Not Active	Not Active	–	–
CO[C@@H]1[C@@H](OC)[C@H](C)[C@@](O)(CC(=O)O)O[C@H]1[C@H](C)[C@H]1O[C@@]2(CC[C@@](C)([C@H]3CC[C@@](C)([C@@H]4O[C@@H]([C@H]5O[C@](C)(O)[C@H](C)C[C@@H]5C)C[C@@H]4O[C@@H]4C[C@H](OC)[C@@H](OC)[C@H](C)O4)O3)O2)C[C@H](O)[C@H]1C.N [MADURAMICIN]	Not Active	Not Active	Not Active	Not Active	Not Active	–	Not Active	–	–	–
C#C[C@]1(O)CC[C@H]2[C@@H]3[C@H](C)CC4=C(CCC(=O)C4)[C@H]3CC[C@@]21C [TIBOLONE]	Not Active	Not Active	–	–	Not Active	Not Active	Not Active	Not Active	–	–
C[N+]1(C)[C@@H]2C[C@@H](OC(=O)[C@H](CO)c3ccccc3)C[C@H]1[C@@H]1O[C@@H]12.[Br-] [METHSCOPOLAMINE BROMIDE]	Not Active	Not Active	Not Active	Not Active	Not Active	Not Active	Not Active	–	–	–
CCN1CCCC1CNC(=O)c1cc(S(N)(=O)=O)ccc1OC (configuration not stated) [SULPIRIDE]	Not Active	Not Active	–	Not Active	–	Not Active	–	Not Active	2.02	0.757
C[C@]12CCC(=O)C[C@@H]1CC[C@@H]1[C@@H]2CC[C@]2(C)[C@@H](O)CC[C@@H]12 [STANOLONE]	Not Active	Not Active	–	Not Active	Not Active	Not Active	Not Active	Not Active	–	–
CCN(CC)N=O [N-NITROSODIETHYLAMINE]	Not Active	Not Active	–	–	Not Active	Not Active	Not Active	–	–	–
CN(C)CCC=C1c2ccccc2COc2ccccc21 [DOXEPIN]	Not Active	Not Active	–	Not Active	–	–	–	–	–	–
CO[C@@]12[C@H](COC(N)=O)C3=C(C(=O)C(C)=C(N)C3=O)N1C[C@@H]1N[C@@H]12 [MITOMYCIN]	Not Active	Not Active	–	Not Active	Not Active	Not Active	Not Active	Not Active	–	–
COC(=O)Nc1nc2ccc(C(=O)c3ccccc3)cc2[nH]1 [MEBENDAZOLE]	Not Active	Not Active	Not Active	Not Active	Not Active	Not Active	Not Active	–	–	–
O=C(OC[C@H]1O[C@@H](OC(=O)c2cc(O)c(O)c(OC(=O)c3cc(O)c(O)c(O)c3)c2)[C@H](OC(=O)c2cc(O)c(O)c(OC(=O)c3cc(O)c(O)c(O)c3)c2)[C@@H](OC(=O)c2cc(O)c(O)c(OC(=O)c3cc(O)c(O)c(O)c3)c2)[C@@H]1OC(=O)c1cc(O)c(O)c(OC(=O)c2cc(O)c(O)c(O)c2)c1)c1cc(O)c(O)c(OC(=O)c2cc(O)c(O)c(O)c2)c1 [TANNIC ACID]	Not Active	Not Active	–	Not Active	Not Active	Not Active	Not Active	–	–	–
CC#C[C@]1(O)CC[C@H]2[C@@H]3CCC4=CC(=O)CCC4=C3[C@@H](c3ccc(N(C)C)cc3)C[C@@]21C [MIFEPRISTONE]	Not Active	Not Active	–	–	Not Active	Not Active	Not Active	Not Active	–	–
CC(O)C(=O)O (configuration not stated) [LACTIC ACID]	Not Active	Not Active	Not Active	–	Not Active	Not Active	Not Active	–	–	–
CC(=O)O[C@]1(C(C)=O)CC[C@H]2[C@@H]3C[C@H](C)C4=CC(=O)CC[C@]4(C)[C@H]3CC[C@@]21C [MEDROXYPROGESTERONE ACETATE]	Not Active	Not Active	Not Active	–	Not Active	Not Active	Not Active	–	–	–
OC[C@@H](O)[C@@H](O)[C@H](O)[C@H](O)CO [MANNITOL]	Not Active	Not Active	Not Active	–	Not Active	Not Active	Not Active	–	–	–
CC(Cl)(Cl)Cl [TRICHLOROETHANE]	Not Active	Not Active	–	–	Not Active	Not Active	Not Active	–	–	–
O=C(c1ccccc1)c1ccc2n1CCC2C(=O)O (configuration not stated) [KETOROLAC]	Not Active	Not Active	–	–	Not Active	Not Active	Not Active	–	–	–
